According to patent US8435962B2, “Triacetyl-3-hydroxyphenyladenosine and its use for regulating blood fat” (Institute of Mataria Medica, Chinese Academy of Medical …, priority 2009, dated 2013):
Where two headings read alike, the source gives them in different places.

Tests used:
[1] = system: hyperlipidemia rats; experiment: Effects on hepatic SOD activity and MDA content of hyperlipidemia rats; format: in vivo, rat; details: for hepatic MDA / hepatic SOD: 4 weeks
Excerpt: (§1) Control animals received an equal volume of vehicle.

[2] = system: hyperlipidemia hamsters; experiment: Effects on hepatic SOD activity and MDA concentration in hyperlipidemic hamsters' livers; format: in vivo, hamster; details: for hepatic SOD / hepatic MDA: 4 weeks
Experimental: (§2) After a week of accommodation, except control group (n=12) all the hamsters (n=72) were fed with high-fat laboratory chow.
(§3) After four weeks high-fat diet modeling, rats were treated with different drugs by intragastric administration. Control animals received an equal volume of vehicle.
(§4) At the end of 4 weeks drug treatment, animals were fasted for 12 hours (10 of each group). The next day, they were anesthetized by intraperitoneal injection of pentobarbitale sodium (45 mg/kg). Blood samples were collected from the abdominal aorta within 15 min, and plasma was separated. Plasma TC, TG, HDL-C, LDL-C, ALT, FFA were detected. Liver and the retroperitoneal fat were separated and weighed, the liver and fat index were calculated. Liver SOD and MDA were detected by kit after homogenized. The left hamsters (10 each group) drug treatment was withdrawn while high-fat diet modeling continued. Two weeks later, blood sample was collected from the orbit and serum TC and TG were detected.

[3] = system: hyperlipidemia rats; experiment: Serum lipid of hyperlipidemia rats after withdrawal from drugs for 2 weeks; format: in vivo, rat; details: for TC / TG: rats, 2 weeks after drug withdrawal, high-fat diet continued
Experimental: (§5) After a week of accommodation, except control group (20 rat), all the rats (120 rats) were fed with high-fat laboratory chow.
as §3
(§6) At the end of 4 weeks drug treatment, animals were fasted for 12 hours before anesthetizing by intraperitoneal injection of pentobarbitale sodium (45 mg/kg), and anticoagulated by 100 U/kg heparin through caudal vein injection. Blood samples were collected from the abdominal aorta within 15 min, and serum was separated. Serum TC, TG, HDL-C, LDL-C, ALT, FFA were detected. Liver and the fat pad behind the belly were separated and weighed, the liver and retroperitoneal fat were weighed too. […] The left rats (10 rats each group) drug treatment was withdrawn while high-fat diet modeling continued. Two weeks later, blood sample was collected from the orbit, and serum TC, TG were detected.

[4] = system: hyperlipidemia hamsters; experiment: Effects on plasma lipid in hyperlipidemia hamsters (high-fat diet); format: in vivo, hamster; details: for HDL-C / HDL/LDL / LDL-C / TC / TG: 4 weeks;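 as to all read-outs here: hamsters given high-fat chow for four weeks, then dosed by gavage, plasma lipids measured in abdominal aortic blood after a 12 h fast, compared with vehicle-treated controls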
Experimental: as §2, §3, §4

[5] = system: hyperlipidemia rats; experiment: Effects on retroperitoneal fat weight of hyperlipidemic rats; format: in vivo, rat; details: for Fat weight (retroperitoneal fat): hyperlipidemic rats, 4 weeks
Excerpt: as §1

[6] = system: hyperlipidemia rats; experiment: Effects on liver weight and serum ALT activity of hyperlipidemia rats; details: 4 weeks
Experimental: as §5, §3, §6

[7] = system: hyperlipidemia hamsters; experiment: Serum lipid level in hyperlipidemic hamsters after drug discontinuance (2 weeks); format: in vivo, hamster; details: for TC / TG / serum lipid levels after drug discontinuance: hamsters; for TC / TG: 2 weeks after drug discontinuance, high-fat diet continued; for serum lipid levels after drug discontinuance: vs model group, in words
Experimental: as §2, §3, §4

[8] = system: hyperlipidemia hamsters; details: hamster, in vivo, 50 mg/kg
Experimental: as §2, §3, §4

[9] = system: hyperlipidemia rats; experiment: Effects on plasma lipid in hyperlipidemia rats (high-fat diet); format: in vivo, rat; details: for FFA / HDL-C / HDL/LDL / LDL-C / TC / TG: 4 weeks;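 as to all read-outs here: rats kept on high-fat chow for 4 weeks before dosing, serum taken from abdominal aorta after a 12 h fast at end of treatment, controls given vehicle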
Experimental: as §5, §3, §6

[10] = system: hyperlipidemia rats; details: rat, in vivo, 50 mg/kg
Experimental: as §5, §3, §6

[11] = system: hyperlipidemia hamsters; experiment: Effects on serum ALT activity in hyperlipidemic hamsters; details: for ALT: hyperlipidemic hamsters, 4 weeks
Experimental: as §2, §3, §4

[12] = system: hyperlipidemia hamsters; experiment: Effect on retroperitoneal fat of hyperlipidemia hamsters; format: in vivo, hamster
Experimental: as §2, §3, §4

[13] = hyperlipidemia rats, 3 mg/kg intragastric
[14] = hyperlipidemia rats, 6 mg/kg intragastric
[15] = hyperlipidemia rats, 12 mg/kg intragastric

CC(C)OC(=O)C(C)(C)Oc1ccc(C(=O)c2ccc(Cl)cc2)cc1 [Fenofibrate, reference compound]
hepatic MDA ([1]; 50 mg/kg intragastric): 9.35 ± 2.4 nmol/mg protein | hepatic SOD ([1]; 50 mg/kg intragastric): 103.6 ± 27.9 U/g pr | hepatic SOD ([2]; 50 mg/kg intragastric): 94.0 ± 16.3 U/g pr | TC ([3]; 50 mg/kg): 2.08 ± 0.49 mmol/L | TG ([3]; 50 mg/kg): 1.03 ± 0.19 mmol/L | HDL-C ([4]; 50 mg/kg intragastric): 1.48 ± 0.40 mmol/L | HDL/LDL ([4]; 50 mg/kg intragastric): 0.50 ± 0.13 | LDL-C ([4]; 50 mg/kg intragastric): 3.04 ± 0.82 mmol/L | TC ([4]; 50 mg/kg intragastric): 4.76 ± 1.58 mmol/L | TG ([4]; 50 mg/kg intragastric): 3.80 ± 1.04 mmol/L | Fat weight (retroperitoneal fat) ([5]; 50 mg/kg intragastric): 0.68 ± 0.16 g/100 g body weight | Liver weight ([6]; 'rat' in hamster Table 9, 50 mg/kg intragastric): 4.08 ± 0.36 g/100 g body weight | Liver weight ([6]; hyperlipidemia rats, 50 mg/kg intragastric): 4.08 ± 0.36 g/100 g body weight | TC ([7]; 50 mg/kg): 5.29 ± 2.13 mmol/L | TG ([7]; 50 mg/kg): 4.16 ± 0.86 mmol/L | ALT [8]: 97.3 ± 37.8 U/L | FFA ([9]; 50 mg/kg intragastric): 1.13 ± 0.30 mmol/L | HDL-C ([9]; 50 mg/kg intragastric): 0.59 ± 0.17 mmol/L | HDL/LDL ([9]; 50 mg/kg intragastric): 0.53 ± 0.16 | LDL-C ([9]; 50 mg/kg intragastric): 1.16 ± 0.28 mmol/L | TC ([9]; 50 mg/kg intragastric): 2.23 ± 0.53 mmol/L | TG ([9]; 50 mg/kg intragastric): 0.70 ± 0.19 mmol/L | serum ALT [10]: 40.3 ± 18.0 U/L

CC(=O)OC[C@H]1O[C@@H](n2cnc3c(Nc4cccc(O)c4)ncnc32)[C@H](OC(C)=O)[C@@H]1OC(C)=O [WS070117, O^2′,O^3′,O^5′-tri-acetyl-N^6-(3-hydroxylphenyl)adenosine]
hepatic MDA ([1]; 3 mg/kg intragastric): 8.51 ± 3.32 nmol/mg protein | hepatic SOD ([1]; 3 mg/kg intragastric): 93.3 ± 37.5 U/g pr | hepatic MDA ([1]; 6 mg/kg intragastric): 8.71 ± 2.83 nmol/mg protein | hepatic SOD ([1]; 6 mg/kg intragastric): 102.0 ± 24.4 U/g pr | hepatic MDA ([1]; 12 mg/kg intragastric): 8.29 ± 2.78 nmol/mg protein | hepatic SOD ([1]; 12 mg/kg intragastric): 107.7 ± 26.4 U/g pr | hepatic SOD activity ([1]; after administration, in words): significantly increased | hepatic MDA content ([1]; in words): decreased | hepatic MDA ([2]; 3 mg/kg intragastric): 4.8 ± 1.2 nmol/mg protein | hepatic SOD ([2]; 3 mg/kg intragastric): 84.0 ± 19.6 U/g pr | hepatic MDA ([2]; 6 mg/kg intragastric): 4.23 ± 0.72 nmol/mg protein | hepatic SOD ([2]; 6 mg/kg intragastric): 95.1 ± 31.6 U/g pr | hepatic MDA ([2]; 12 mg/kg intragastric): 4.6 ± 0.92 nmol/mg protein | hepatic SOD ([2]; 12 mg/kg intragastric): 91.9 ± 22.9 U/g pr | MDA concentration ([2]; in words): lower than the model group | time blood-fat regulatory effect is sustained after withdrawal ([3]; hyperlipidemia rats): more than 2 weeks | serum TC content after withdrawal from drugs for 2 weeks ([3]; hyperlipidemia rats, in words): significantly lower than that of the model group | TC ([3]; 3 mg/kg): 2.12 ± 0.45 mmol/L | TG ([3]; 3 mg/kg): 1.04 ± 0.19 mmol/L | TC ([3]; 6 mg/kg): 2.02 ± 0.43 mmol/L | TG ([3]; 6 mg/kg): 1.03 ± 0.22 mmol/L | TC ([3]; 12 mg/kg): 2.15 ± 0.32 mmol/L | TG ([3]; 12 mg/kg): 1.01 ± 0.38 mmol/L | ALT ([11]; 3 mg/kg intragastric): 100.7 ± 38.2 U/L | ALT ([11]; 6 mg/kg intragastric): 91.7 ± 23.1 U/L | ALT ([11]; 12 mg/kg intragastric): 95.2 ± 34.8 U/L | serum ALT activity ([11]; text of hamster Example 3 says 'hyperlipidemic rats', in words): slightly reduced | retroperitoneal fat ([12]; 3 mg/kg intragastric, 4 weeks): 1.26 ± 0.34 g/100g | retroperitoneal fat ([12]; 6 mg/kg intragastric, 4 weeks): 1.23 ± 0.23 g/100g | retroperitoneal fat ([12]; 12 mg/kg intragastric, 4 weeks): 1.31 ± 0.27 g/100g | retroperitoneal fat ([12]; after treatment, in words): decreased | HDL-C ([4]; 3 mg/kg intragastric): 1.24 ± 0.26 mmol/L | HDL/LDL ([4]; 3 mg/kg intragastric): 0.37 ± 0.11 | LDL-C ([4]; 3 mg/kg intragastric): 3.68 ± 1.44 mmol/L | TC ([4]; 3 mg/kg intragastric): 4.35 ± 0.93 mmol/L | TG ([4]; 3 mg/kg intragastric): 4.26 ± 1.52 mmol/L | HDL-C ([4]; 6 mg/kg intragastric): 1.14 ± 0.18 mmol/L | HDL/LDL ([4]; 6 mg/kg intragastric): 0.40 ± 0.09 | LDL-C ([4]; 6 mg/kg intragastric): 3.00 ± 0.90 mmol/L | TC ([4]; 6 mg/kg intragastric): 4.19 ± 1.14 mmol/L | TG ([4]; 6 mg/kg intragastric): 3.67 ± 1.46 mmol/L | HDL-C ([4]; 12 mg/kg intragastric): 1.24 ± 0.40 mmol/L | HDL/LDL ([4]; 12 mg/kg intragastric): 0.59 ± 0.31 | LDL-C ([4]; 12 mg/kg intragastric): 2.26 ± 0.47 mmol/L | TC ([4]; 12 mg/kg intragastric): 3.60 ± 1.84 mmol/L | TG ([4]; 12 mg/kg intragastric): 3.44 ± 1.29 mmol/L | blood TC, TG and LDL-C ([4]; after treatment, in words): decreased | rate HDL-C/LDL-C ([4]; after treatment, in words): increased | weight of rats' retroperitoneal fat ([5]; hyperlipidemia rats, after administration, in words): obviously decreased | Fat weight (retroperitoneal fat) ([5]; 3 mg/kg intragastric): 0.67 ± 0.33 g/100 g body weight | Fat weight (retroperitoneal fat) ([5]; 6 mg/kg intragastric): 0.67 ± 0.12 g/100 g body weight | Fat weight (retroperitoneal fat) ([5]; 12 mg/kg intragastric): 0.64 ± 0.22 g/100 g body weight | Liver weight ([6]; 'rat' in hamster Table 9, 3 mg/kg intragastric): 3.22 ± 0.48 g/100 g body weight | Liver weight ([6]; 'rat' in hamster Table 9, 6 mg/kg intragastric): 3.21 ± 0.38 g/100 g body weight | Liver weight ([6]; 'rat' in hamster Table 9, 12 mg/kg intragastric): 3.26 ± 0.54 g/100 g body weight | Liver weight [6, 13]: 3.22 ± 0.48 g/100 g body weight | serum ALT [6, 13]: 42.9 ± 13.7 U/L | Liver weight [6, 14]: 3.21 ± 0.38 g/100 g body weight | serum ALT [6, 14]: 41.6 ± 19.8 U/L | Liver weight [6, 15]: 3.26 ± 0.54 g/100 g body weight | serum ALT [6, 15]: 42.0 ± 16.6 U/L | TC ([7]; 3 mg/kg): 5.34 ± 1.32 mmol/L | TG ([7]; 3 mg/kg): 4.36 ± 1.27 mmol/L | serum lipid levels after drug discontinuance ([7]; 6 mg/kg): significantly lower | TC ([7]; 6 mg/kg): 5.02 ± 1.35 mmol/L | TG ([7]; 6 mg/kg): 4.16 ± 0.77 mmol/L | serum lipid levels after drug discontinuance ([7]; 12 mg/kg): significantly lower | TC ([7]; 12 mg/kg): 4.61 ± 1.11 mmol/L | TG ([7]; 12 mg/kg): 3.82 ± 0.66 mmol/L | time hypolipidemic effect lasted after drug discontinuance ([7]; hyperlipidemic hamsters): ≥ 2 weeks | FFA ([9]; 3 mg/kg intragastric): 1.04 ± 0.24 mmol/L | HDL-C ([9]; 3 mg/kg intragastric): 0.58 ± 0.10 mmol/L | HDL/LDL ([9]; 3 mg/kg intragastric): 0.43 ± 0.12 | LDL-C ([9]; 3 mg/kg intragastric): 1.38 ± 0.27 mmol/L | TC ([9]; 3 mg/kg intragastric): 2.39 ± 0.34 mmol/L | TG ([9]; 3 mg/kg intragastric): 0.67 ± 0.15 mmol/L | FFA ([9]; 6 mg/kg intragastric): 0.94 ± 0.17 mmol/L | HDL-C ([9]; 6 mg/kg intragastric): 0.59 ± 0.18 mmol/L | HDL/LDL ([9]; 6 mg/kg intragastric): 0.52 ± 0.19 | LDL-C ([9]; 6 mg/kg intragastric): 1.19 ± 0.18 mmol/L | TC ([9]; 6 mg/kg intragastric): 2.11 ± 0.24 mmol/L | TG ([9]; 6 mg/kg intragastric): 0.52 ± 0.13 mmol/L | effect on rats FFA ([9]; 6 mg/kg, in words): significant effect | FFA ([9]; 12 mg/kg intragastric): 0.97 ± 0.27 mmol/L | HDL-C ([9]; 12 mg/kg intragastric): 0.56 ± 0.10 mmol/L | HDL/LDL ([9]; 12 mg/kg intragastric): 0.47 ± 0.13 | LDL-C ([9]; 12 mg/kg intragastric): 1.24 ± 0.20 mmol/L | TC ([9]; 12 mg/kg intragastric): 2.30 ± 0.29 mmol/L | TG ([9]; 12 mg/kg intragastric): 0.55 ± 0.19 mmol/L | HDL-C/LDL-C ([9]; after treatment, in words): increased | blood TC, TG and LDL-C ([9]; after treatment, in words): decreased

CCC(C)(C)C(=O)O[C@H]1C[C@@H](C)C=C2C=C[C@H](C)[C@H](CC[C@@H]3C[C@@H](O)CC(=O)O3)[C@H]21 [Simvastatin, reference compound]
hepatic MDA ([1]; 2 mg/kg intragastric): 9.29 ± 2.73 nmol/mg protein | hepatic SOD ([1]; 2 mg/kg intragastric): 99.5 ± 20.2 U/g pr | hepatic MDA ([2]; 2 mg/kg intragastric): 4.48 ± 0.96 nmol/mg protein | hepatic SOD ([2]; 2 mg/kg intragastric): 94.6 ± 38.0 U/g pr | TC ([3]; 2 mg/kg): 2.14 ± 0.33 mmol/L | TG ([3]; 2 mg/kg): 0.94 ± 0.24 mmol/L | retroperitoneal fat ([12]; 2 mg/kg intragastric, 4 weeks): 0.97 ± 0.19 g/100g | HDL-C ([4]; 2 mg/kg intragastric): 1.12 ± 0.21 mmol/L | HDL/LDL ([4]; 2 mg/kg intragastric): 0.45 ± 0.12 | LDL-C ([4]; 2 mg/kg intragastric): 2.57 ± 0.53 mmol/L | TC ([4]; 2 mg/kg intragastric): 4.46 ± 1.63 mmol/L | TG ([4]; 2 mg/kg intragastric): 3.20 ± 1.70 mmol/L | Fat weight (retroperitoneal fat) ([5]; 2 mg/kg intragastric): 0.70 ± 0.28 g/100 g body weight | Liver weight ([6]; 'rat' in hamster Table 9, 2 mg/kg intragastric): 3.96 ± 0.93 g/100 g body weight | Liver weight ([6]; hyperlipidemia rats, 2 mg/kg intragastric): 3.96 ± 0.93 g/100 g body weight | TC ([7]; 2 mg/kg): 4.91 ± 1.18 mmol/L | TG ([7]; 2 mg/kg): 4.58 ± 1.01 mmol/L | FFA ([9]; 2 mg/kg intragastric): 0.96 ± 0.39 mmol/L | HDL-C ([9]; 2 mg/kg intragastric): 0.59 ± 0.13 mmol/L | HDL/LDL ([9]; 2 mg/kg intragastric): 0.50 ± 0.16 | LDL-C ([9]; 2 mg/kg intragastric): 1.24 ± 0.24 mmol/L | TC ([9]; 2 mg/kg intragastric): 2.22 ± 0.36 mmol/L | TG ([9]; 2 mg/kg intragastric): 0.76 ± 0.21 mmol/L
